These results are taken from patent US20250352477A1, “FORMULATIONS AND ORAL DOSAGE FORMS OF LIPOPHILIC AGENTS” (CANNBIOREX PHARMA LTD, priority 2022, published 2025).

Molecules are shown by their SMILES. Read-outs that look alike come from different tables or passages of the source.

The nature of the data set: Pharmacokinetic study of LPNF-CBD formulations in freely moving rat model. The format is in vivo. The settings on record: CBD 15 mg/kg; for half-life: read-out: Elimination half-life (converted). The method, then: For pharmacokinetic analysis of LPNF-CBD powders, male Wistar rats were tested in […] groups: a control group received LPNF-CBD prepared as in EXAMPLE 2 (N=5) with CBD concentration 2 mg/mL, administered by oral gavage; experimental groups received LPNF-CBD Polypore or Neusilin US2 powders dispersed in water (N=4 and N=5, respectively) with LPNF-CBD concentration of 20 mg/ml, administered by oral gavage; control groups received CBD in propylene glycol:ethanol:water (4.5:4.5:1 v/v) with CBD concentration of 3 mg/mL, administered by oral gavage or intravenously (N=5 and N=3, respectively). In all groups, the administered CBD dose was 15 mg/kg. For pharmacokinetic (PK) studies, blood samples (0.35 mL) were taken at 0, 0.3 h, 0.6 h, 1 h, 1.5 h, 2 h, 3 h, 4 h and 6 h time points. Plasma was separated by centrifugation and stored frozen until LCMS analysis.
PK study was conducted in the freely moving rat model (in-vivo) in five groups of animals receiving: (1) CBD in propylene glycol:ethanol:water solution; (2) LPNF-CBD, (3) LPNF-CBD Polypore and (4) LPNF-CBD Neusilin powders dispersed in water; all administered by oral gavage; and (5) CBD in propylene glycol:ethanol:water solution administered IV.

Setting [1] is: male, Wistar, in vivo, oral gavage.

One may read the half-life as how long it takes for the measured level to halve. For orientation: AUC means concentration integrated over time. Higher therefore signals more exposure.

The compound `C=C(C)[C@@H]1CCC(C)=C[C@H]1c1c(O)cc(CCCCC)cc1O` [CBD, Cannabidiol] displayed a Liner terminal slope (IV) of 0.2 h⁻¹ and a Liner terminal slope (oral gavage) of 0.2 h⁻¹. The half-life runs as follows: (male, Wistar, in vivo, IV) 4.1 h; under setting [1], 3.2 h. Also, the AUC under setting [1] stood at 158 ng·h/mL.
